Source: US20100292316A1, “IMPROVED THERAPEUTIC METHODS AND COMPOSITIONS COMPRISING CHROMAN RING COMPOUNDS” (Research Development Foundation, priority 2007, published 2010)

Legend:
GSK3β = assay: Western blot of phospho-GSK3β (Ser 9); format: cell-based, human; conditions: LNCaP and PC-3-GFP cells, 40 μM α-TEA
From the text: Previous studies have shown that α-TEA is an effective inducer of apoptosis in human prostate cancer cells (Anderson et al., 2004). Dose- and time-dependent pro-apoptotic effects of α-TEA in prostate cancer cells are mediated by Fas/FADD/caspase-8/tBid and Fas/Daxx/Ask1/JNK1/2/Bax, leading to activation of caspases-9 and -3. Thus, the Akt inhibiting activity of α-TEA was investigated in prostate cancer cells. Since phosphorylation of Akt at Ser 473 is required for its full activation (Cheng et al., 2005), we examined the phosphorylation status of Akt using an antibody that specifically recognizes Akt phosphorylated at Ser 473 in all three Akt isoforms (Upstate Cell Signaling Solutions (Charlottesville, Va.)). α-TEA decreased the levels of the phosphorylated forms of Akt. […] As verification that the decreases in phosphorylation status of Akt correlated with decreased kinase activity, the phosphorylation status of GSK3β, a downstream Akt target, was evaluated following α-TEA treatments. […] GAPDH levels were assayed with each immunoblot assay as a protein loading control.
Akt antibodies for the foregoing studies (Akt, Akt1, Akt2, Akt and phospho-Akt) as well as GSK3β and phospho-GSK3β antibodies were purchased from Cell Signaling Technology (Beverly, Mass.).

LNCaP cells = assay: Apoptosis by DAPI staining, LNCaP; format: cell-based, human
Experimental: Cells were plated at 2×10^6 in 100 mm cell culture plates, cultured overnight and washed with serum free media before transfection. Plasmids (0.7 μg or 4.2 of μg) or empty vector (pcDNA3) were mixed with 50 μl or 300 μl serum free media and 4 μl or 24 μl PLUS reagent (Invitrogen, CA) and incubated for 15 min at room temperature. Next 2 μl or 12 μl of Lipofectamine reagent (Invitrogen, CA) in 50 μl or 300 μl serum free media were added and the mixture incubated for another 15 min before adding to the cells in 0.5 ml or 5 ml serum free media. Cells were incubated with transfection reagents for 3 h and the growth media containing 2×FBS was added to the cells. Transfected cells were cultured overnight before α-TEA treatment. Transfection efficiency was determined to be 70% using GFP expressing plasmid.
Assessment of apoptosis based on nuclear morphology using 4′, 6-diamidino-2-phenylindole dihydrochloride (DAPI; Boehringer Mannheim Corp. Indianapolis, Ind.) has been described previously (Yu et al., 2003; Israel et al., 2000). Briefly, 1.5×10^5/well LNCaP or PC-3-GFP cells were plated in 12-well tissue culture plates and cultured overnight to allow cells to attach. On the next day, cells were treated with various concentrations of α-TEA and incubated for various time periods. At the end of treatments, cells were collected, washed with PBS, stained with 25 μl of 2 μg/ml DAPI, and viewed under a fluorescent microscope (model ICM 405 with a model 487701 filter, Zeiss). Cells which contained clearly condensed chromatin or fragmented nuclei were scored as apoptotic cells. ≧500 cells were counted in each sample. Apoptotic data are presented as percentage of apoptotic cells±S.D. for three independent experiments.
FOXO1 siRNA used in the study was purchased from Santa Cruz (Santa Cruz, Calif.). […] Transfection of human prostate cancer cells with FOXO1 siRNA or negative control siRNA was performed in 100 mm cell culture dishes at a density of 2×10^6 cells/dish using Lipofectamine 2000 (Invitrogen, Carlsbad, Calif.) and 300 pmol of siRNA duplex, resulting in a final siRNA concentration of 30 nM. siRNA transfected cells were incubated for 48-72 h prior to α-TEA treatment.

FlipL = FlipL protein level by immunoblot; format: cell-based, human; conditions: LNCaP and PC-3-GFP cells, 40 μM α-TEA, time-dependent
From the text: Antibodies to human Flip and survivin used in these experiments were purchased from Santa Cruz Biotechnology (Santa Cruz, Calif.).

[1] = system: human MDA-MB-435 breast cancer cells; conditions: preclinical xenograft model transplanted with human MDA-MB-435 breast cancer cells (Zhang et al., 2004); cited from earlier work

Cc1c(C)c2c(c(C)c1OCC(=O)O)CC[C@@](C)(CCC[C@H](C)CCC[C@H](C)CCCC(C)C)O2 [α-TEA]
phosphorylation status of pGSK3β (at Ser 9) (GSK3β): Decreases
decrease in percentage of apoptotic cells in cells expressing constitutively active Akt1 vs empty vector (LNCaP cells; 15 μM α-TEA): 21%
decrease in percentage of apoptotic cells in cells expressing constitutively active Akt1 vs empty vector (LNCaP cells; 20 μM α-TEA): 24%
decrease in percentage of apoptotic cells in cells expressing constitutively active Akt2 vs empty vector (LNCaP cells; 20 μM α-TEA): 10%
α-TEA-induced apoptosis on overexpression of wild type or constitutively active FOXO1 (LNCaP cells; 40 μM α-TEA 15 h, P<0.009): increased
protein levels of FlipL (FlipL): downregulated
blood vessel density [1]: significantly reduce blood vessel density
